Calls of active or inactive are those of the source. No cut-off for these calls is given here.
Tests used:
Homo sapiens = species on record: Homo sapiens; assay: Inhibition of LPS-induced TNF-alpha production in human whole blood.; assay type: functional, organism-based
[1] = target: 3',5'-cyclic-AMP phosphodiesterase 4A (Homo sapiens, UniProt P27815); assay: Inhibitory activity against human PDE4A expressed isoform using construct representing the common region of spliced variants as GST-fusion protein in Sf9 cells.
[2] = Cmax in rats after 20 mg/kg oral dose; assay type: ADME, organism-based; set-up: dose 20 mg/kg, route oral; conditions: rat, in vivo
[3] = Half life period after intravenous administration at 5 mg/kg in rat; assay type: ADME, organism-based; set-up: dose 5 mg/kg, route intravenous; conditions: in vivo
[4] = Oral bioavailability (dose 20 mg/kg p.o.); assay type: ADME, organism-based; conditions: rat, in vivo
Ovis aries [5] = assay: In vivo inhibition of ovalbumin-induced bronchoconstriction in sheep early phase at 20 mg/kg ip dose 30 hr prior to challenge; assay type: functional; conditions: route intraperitoneal
Cavia porcellus [6] = assay: In vivo inhibition of ovalbumin-induced bronchoconstriction in conscious guinea pig at 1 mg/kg ip dose 30 hr prior to challenge; assay type: functional; conditions: route intraperitoneal
Ovis aries [7] = assay: In vivo inhibition of ovalbumin-induced bronchoconstriction in sheep late phase at 20 mg/kg ip dose 2 hr prior to challenge; assay type: functional; conditions: route intraperitoneal
Ovis aries [8] = assay: In vivo inhibition of ovalbumin-induced bronchoconstriction in sheep late phase at 2.0 mg/kg ip dose 2 hr prior to challenge; assay type: functional; conditions: route intraperitoneal
Cavia porcellus [9] = assay: In vivo inhibition of ovalbumin-induced bronchoconstriction in conscious guinea pig at 1 mg/kg ip dose 4 hr prior 4 hr to challenge; assay type: functional; conditions: route intraperitoneal
Mustela putorius furo = assay: Emesis in ferrets at 30 mg/kg oral dose; assay type: functional
Ovis aries [10] = assay: In vivo inhibition of ovalbumin-induced bronchoconstriction in sheep early phase at 2.0 mg/kg ip dose 4 hr prior to challenge; assay type: functional; conditions: route intraperitoneal
[11] = Cmax in ferrets after 30 mg/kg oral dose; assay type: ADME, organism-based, Mustela putorius furo; set-up: dose 30 mg/kg, route oral; conditions: ferret, in vivo

Sequence of 3',5'-cyclic-AMP phosphodiesterase 4A (P27815 whole entry, looked up, stated change not applied, the tested form may be a part, canonical isoform): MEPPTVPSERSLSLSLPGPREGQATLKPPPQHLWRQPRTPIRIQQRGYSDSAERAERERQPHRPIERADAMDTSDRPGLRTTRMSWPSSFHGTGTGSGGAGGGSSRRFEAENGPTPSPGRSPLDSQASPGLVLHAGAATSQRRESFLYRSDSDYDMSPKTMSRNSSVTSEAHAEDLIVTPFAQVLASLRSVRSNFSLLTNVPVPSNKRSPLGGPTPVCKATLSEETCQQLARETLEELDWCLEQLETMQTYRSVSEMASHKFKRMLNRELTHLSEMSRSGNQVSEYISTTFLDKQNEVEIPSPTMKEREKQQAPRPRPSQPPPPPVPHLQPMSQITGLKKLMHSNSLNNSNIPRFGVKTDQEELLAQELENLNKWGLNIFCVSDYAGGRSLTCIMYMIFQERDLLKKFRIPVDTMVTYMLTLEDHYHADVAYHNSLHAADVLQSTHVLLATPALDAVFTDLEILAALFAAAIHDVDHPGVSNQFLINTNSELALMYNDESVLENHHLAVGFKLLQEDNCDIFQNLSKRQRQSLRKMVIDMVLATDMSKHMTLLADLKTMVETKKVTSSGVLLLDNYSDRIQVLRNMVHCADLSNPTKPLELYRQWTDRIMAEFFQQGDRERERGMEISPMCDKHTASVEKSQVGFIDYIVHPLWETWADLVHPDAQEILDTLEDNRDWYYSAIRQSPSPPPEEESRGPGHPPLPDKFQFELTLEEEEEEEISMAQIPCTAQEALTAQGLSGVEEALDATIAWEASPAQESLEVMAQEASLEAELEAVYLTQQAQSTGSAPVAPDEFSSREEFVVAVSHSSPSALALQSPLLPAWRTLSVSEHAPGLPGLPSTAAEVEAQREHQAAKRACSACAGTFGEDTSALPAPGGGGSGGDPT

Row | Structure (SMILES) | IC50 (Homo sapiens; Homo sapiens, Blood) [nM] | IC50 [1] [nM] | other results
1 | Cc1ccc(CCNc2ccc(C(Cc3cc[n+]([O-])cc3)c3ccc(OC(F)F)c(OC(F)F)c3)cn2)cc1 (stereo not given) | 800 | 2.3 | –
2 | CCNC(=O)Nc1ccc(C(Cc2cc[n+]([O-])cc2)c2ccc(OC(F)F)c(OC(F)F)c2)cn1 (stereo not given) | 1700 | 8.3 | –
3 | CCN(Cc1ccccc1)c1ccc(C(Cc2cc[n+]([O-])cc2)c2ccc(OC(F)F)c(OC(F)F)c2)cn1 (stereo not given) | 400 | 2.3 | –
4 | [O-][n+]1ccc(CC(c2ccc(C(O)(C(F)(F)F)C(F)(F)F)cc2)c2ccc(OC(F)F)c(OC(F)F)c2)cc1 (stereo not given) | – | 4.2 | Cmax [2]: 3500 nM; Efficacy (Ovis aries [8]): 95%; half-life [3]: > 1440 min; bioavailability [4]: 70%; Efficacy (Cavia porcellus [9]): 58%; Emesis_ED (Mustela putorius furo): inactive; Efficacy (Ovis aries [10]): 85%; Cmax [11]: 16 µM
5 | CN(Cc1ccc2ccccc2c1)c1ccc(C(Cc2cc[n+]([O-])cc2)c2ccc(OC(F)F)c(OC(F)F)c2)cn1 (stereo not given) | 300 | 1.5 | –
6 | CC(C)(C)N(Cc1ccccc1)c1ccc(C(Cc2cc[n+]([O-])cc2)c2ccc(OC(F)F)c(OC(F)F)c2)cn1 (stereo not given) | 17000 | 18 | –
7 | [O-][n+]1ccc(CC(c2ccc(N3CCCC3)nc2)c2ccc(OC(F)F)c(OC(F)F)c2)cc1 (stereo not given) | – | 31 | –
8 | CN(CCc1ccccc1)c1ccc(C(Cc2cc[n+]([O-])cc2)c2ccc(OC(F)F)c(OC(F)F)c2)cn1 (stereo not given) | 800 | 5.8 | –
9 | CC(C)N(Cc1ccccc1)c1ccc(C(Cc2cc[n+]([O-])cc2)c2ccc(OC(F)F)c(OC(F)F)c2)cn1 (stereo not given) | 1000 | 9.3 | –
10 | Cc1c[n+]([O-])ccc1CC(c1ccc(C(O)(C(F)(F)F)C(F)(F)F)cc1)c1ccc(OC(F)F)c(OC(F)F)c1 (stereo not given) | 300 | 1.3 | –
11 | Nc1ccc(C(Cc2cc[n+]([O-])cc2)c2ccc(OC(F)F)c(OC(F)F)c2)cn1 (stereo not given) | 1600 | 31 | –
12 | CC(=O)Nc1ccc(C(Cc2cc[n+]([O-])cc2)c2ccc(OC(F)F)c(OC(F)F)c2)cn1 (stereo not given) | 1800 | 33 | –

Continued, in another order:

Row | IC50 (Homo sapiens; Homo sapiens, Blood) [nM] | IC50 [1] [nM] | Structure (SMILES) | other results
13 | 2100 | 0.8 | CN(c1ccccc1)c1ccc(C(Cc2cc[n+]([O-])cc2)c2ccc(OC(F)F)c(OC(F)F)c2)cn1 (stereo not given) | –
14 | 34000 | 16 | O=S(=O)(Nc1ccc(C(Cc2cc[n+]([O-])cc2)c2ccc(OC(F)F)c(OC(F)F)c2)cn1)c1ccccc1 (stereo not given) | –
15 | – | 0.8 | CC(C)(Nc1ccc(C(Cc2cc[n+]([O-])cc2)c2ccc(OC(F)F)c(OC(F)F)c2)cn1)c1ccccc1 (single isomer, unassigned; (-)) | IC50 (Homo sapiens): 100 nM; Cmax [2]: 2400 nM; half-life [3]: 120 min; bioavailability [4]: 100%; Efficacy (Ovis aries [5]): 64%; Efficacy (Cavia porcellus [6]): 54%; Efficacy (Ovis aries [7]): 97%
16 | 400 | 1.2 | [O-][n+]1ccc(CC(c2ccc(NCc3ccccc3)nc2)c2ccc(OC(F)F)c(OC(F)F)c2)cc1 (stereo not given) | –
17 | 800 | 12 | CC(C)Nc1ccc(C(Cc2cc[n+]([O-])cc2)c2ccc(OC(F)F)c(OC(F)F)c2)cn1 (stereo not given) | –
18 | 300 | 1.2 | CN(Cc1ccccc1)c1ccc(C(Cc2cc[n+]([O-])cc2)c2ccc(OC(F)F)c(OC(F)F)c2)cn1 (stereo not given) | –
19 | – | 1.6 | CC(C)(Nc1ccc(C(Cc2cc[n+]([O-])cc2)c2ccc(OC(F)F)c(OC(F)F)c2)cn1)c1ccccc1 (stereo in doubt; 3n) | IC50 (Homo sapiens): 200 nM
20 | – | 23 | CC(C)(Nc1ccc(C(Cc2cc[n+]([O-])cc2)c2ccc(OC(F)F)c(OC(F)F)c2)cn1)c1ccccc1 (stereo in doubt; (+)-3n) | IC50 (Homo sapiens): 10000 nM
21 | 700 | 0.3 | C[C@H](c1ccccc1)N(C)c1ccc(C(Cc2cc[n+]([O-])cc2)c2ccc(OC(F)F)c(OC(F)F)c2)cn1 (stereo not given in full) | –
22 | 200 | 0.6 | CCN(c1ccc(C(Cc2cc[n+]([O-])cc2)c2ccc(OC(F)F)c(OC(F)F)c2)cn1)[C@H](C)c1ccccc1 (stereo not given in full) | –
23 | 900 | 1.7 | C[C@@H](Nc1ccc(C(Cc2cc[n+]([O-])cc2)c2ccc(OC(F)F)c(OC(F)F)c2)cn1)c1ccccc1 (stereo not given in full) | –
24 | 3800 | 7.8 | O=C(Cc1ccccc1)Nc1ccc(C(Cc2cc[n+]([O-])cc2)c2ccc(OC(F)F)c(OC(F)F)c2)cn1 (stereo not given) | –

— ChEMBL document CHEMBL1136601, “Substituted aminopyridines as potent and selective phosphodiesterase-4 inhibitors” (Bioorg Med Chem Lett, 2003)
